This note sets out measurements from US7189391B2, “Method of in vitro preconditioning healthy donor's myoblasts before transplantation thereof in compatible patients suffering of myopathies like muscular dystrophy, for improving transplantation success” (Université Laval, priority 1996, dated 2007).

The test system of assay [1] is mdx mice. As to the kind of experiment: Survival of retrovirally labelled myoblasts 3 days after transplantation in TA muscle. To be noted: myoblasts grown with bFGF, 4×10^6 cells injected. It counts as in vivo, mouse. Here is the method: (§1) The mdx mice were divided in three groups. Six mdx mice of one group were grafted in both tibialis anterior (TA) muscles: myoblasts grown with bFGF were injected in the left TA and myoblasts grown without bFGF were injected in the right TA. Myoblasts grown without bFGF were injected in only the left TA of six other mdx mice. These six mdx mice were then injected intramuscularly four times (after grafting 0, +1, +4 and +6 days) either with 10 μl of bFGF (100 ng/ml, 3 mice) or with 10 μl of HBSS (3 mice). The last five mice were grafted in both TA muscle with normal CD1 mouse myoblasts infected with replication defective retroviral vector LNPOZC7 (gift from Dr C. Cepko, Harvard, Boston, Mass.) which contains the LacZ gene. The left TA muscles were injected with 4 million myoblasts grown with bFGF, while the right TA muscles were injected with 4 million myoblasts grown without bFGF. Three days after grafting, these 5 mice were sacrificed to detect the number of β-galactosidase positive cells which survived in each TA muscle. The numbers of β-galactosidase positive cells were counted in 8 μm sections obtained at every 160 μm throughout the muscle. The total number of cells counted was multiplied by 20 to obtain an estimate of the number of surviving cells and a correction was made to account for the percentage of unlabelled cells in cultures with and without bFGF. […]

Assay [2] relates to mdx mice. The assay can be described thus: Intramuscular injections of bFGF after myoblast transplantation in mdx mice. In kind it is in vivo, mouse. The note with it: intramuscular injections of bFGF vs HBSS control. How it is done:
as §1

Assay [3] concerns primary myoblast cultures. The assay can be described thus: Effects of bFGF on primary myoblast culture (cell count, desmin staining). It counts as cell-based, mouse. The text has this:
Primary myoblast cultures were established from muscle biopsies of newborn transgenic mice^26. The founder mouse (TnI Lac Z1/29) was provided by Dr. Hasting (McGill University, Montreal, Canada) onto the CD1 background and was reproduced in our laboratory. This transgenic mouse expresses the β-galactosidase gene under the control of the promoter of the quail fast skeletal muscle troponin I gene^16. […] Before starting myoblast cultures, it was necessary to identify transgenic newborns by X-gal staining of a small muscle biopsy because heterozygote transgenic mice were used as parents. Myogenic cells were released from skeletal muscle fragments of the transgenic newborns by serial enzyme treatments. First, a one hour digestion was done with 600 U/ml collagenase (Sigma, St. Louis, Mo., USA). This was followed by a 30 minute incubation in Hanck's balanced salt solution (HBSS) containing 0.1% w/v trypsin (Gibco Lab, Grand Island, N.Y., USA). Satellite cells were placed in 75 cm^2 culture flasks (Coster, Cambridge, Mass., USA) in proliferating medium, i.e. 199 medium (Gibco Lab.) with 15% fetal bovine serum (Gibco Lab.), 1% penicillin (10,000 U/ml) and 1% streptomycin (10,000 U/ml).
One day after starting culture, the culture medium of some flasks was replaced by medium containing 100 ng/ml human recombinant bFGF (Sigma). Three days after starting culture, myoblasts were detached from the flasks with 0.1% trypsin followed by three suspensions in HBSS and centrifugations (6500 RPM, 5 minutes). The final cell pellet was diluted in only 40 μl of HBSS.
The primary cultures were washed with PBS and fixed with 100% methanol at −4° C. They were then washed again 3 times with PBS and incubated 1 hr with a mAb anti-human desmin (Dako, Copenhagen, Denmark) diluted 1/50 with PBS containing 1% blocking serum (i.e. 0.33% rabbit serum, 0.33% horse serum and 0.33 fetal calf serum). They were washed 3 times with PBS with 1% blocking serum and incubated 1 hr with a 1/100 dilution (in PBS with 1% blocking serum) of a rabbit anti-mouse immunoglobulin (Dako).
To try to understand the beneficial effects of bFGF on myoblast transplantation, we examined the effect of a short stimulation (2 days) with 100 ng/ml bFGF on primary myoblast cultures. The total number of cells in each flask was not significant different (31.9±6.8×10^6 with bFGF n=5, 30.0±5.8×10^6 without FGF n=9, unpaired t-test: p=0.573). […] In these cultures, there was no difference in the percentage of myogenic nuclei (nuclei in myoblasts and in myotubes) between the two groups of cultures (Table 3, line 1). More myogenic cells were however fused in the absence of bFGF (Table 3, line 2). There was an higher percentage of the total nuclei (including myoblasts, myotubes and fibroblasts) which were myoblast nuclei in cultures containing bFGF (Table 3, line 3). The increase of myoblasts was more clear when the percentage of myoblasts was calculated among mononuclear cells (excluding the myotubes) (Table 3, lines 4 and 5). This was however only a 35% increase.

Another assay relates to myoblasts. The assay can be described thus: Migration of transplanted myoblasts cultured with concanavalin A, anterior tibialis muscle of mice. It counts as in vivo, mouse. The note with it: CMVLacZ myoblasts cultured 2 days with 20 μg/ml concanavalin A. How it is done:
Myoblasts infected with a retrovirus expressing a beta-galactosidase gene have been cultured for four days in the presence or absence of 20 μg/ml concanavalin A, a lectine which stimulates the expression of metalloproteases. These myoblasts were then injected in one single site of the anterior tibialis muscle of eight mice, in order to verify the degree with which the transplanted cells are capable of migrating through the recipient tissue. After thirty days, mice were sacrificed and the muscle tissue was harvested, frozen and 10 μm thick slices were mounted on slides. […] Therefore, the presence of metalloproteases in the preconditioning medium or during the transplantation is beneficial to the spreading of the transplanted cells from the site of the injection through the recipient muscle tissue.
First experiment: Myoblasts obtained from CMVLacZ mice (expressing a Beta-galactosidase gene) were cultured for two (2) days in the presence of twenty (20) μg/ml concanavalin A, a lectine which stimulates the expression of metalloproteases. When these myoblasts were injected in the anterior tibialis muscle of recipient mice, the migration of transplanted cells was increased by three (3) fold comparatively to myoblasts having not received the concanavalin treatment.

In assay [4] the test system is primary cultures of myoblasts. As to the kind of experiment: Transplantation of TnI-βGal myoblasts cultured with phorbol ester (TPA). It counts as in vivo, mouse. The note with it: TPA 100 ng/ml, 2 days culture, n=5 mice. How it is done: Imm 7 neo: expresses neomycin. Imm 7 Matrilysine: expresses neomycin and matrilysine. Tn I βgal: untreated transgenic mouse myoblasts expressing β-Gal. Tn I βGal+TPA: transgenic mouse myoblasts/β-Gal treated with phorbol ester.
Second experiment: primary cultures of myoblasts were obtained from transgenic mice (TnI-βGal+TPA). Myoblasts were cultured for two (2) days in the presence of phorbol ester (TPA 100 ng/ml) which also stimulates the expression metalloproteases.

Where [5] appears, read: with bFGF 100 ng/ml, 2 days, mean ± SD.

As to basic fibroblast growth factor [bFGF], in the assay on mdx mice [1] (left TA muscles, 5 mice), the “number of β-galactosidase positive cells 3 days after transplantation” value is on record as 3.29±1.54×10^5 cells. For the same molecule, in the assay with mdx mice [1], the “% of the injected cells surviving at 3 days” value is 8.2%. Besides, the “difference in the percentage of hybrid or donor muscle fibers vs HBSS injections” value in the assay on mdx mice [2] is reported as “No significant difference”. In assay [3] (2 days with 100 ng/ml bFGF, n=5), the “total number of cells in each flask” value was 31.9±6.8×10^6. Further, in assay [3] (2 days with bFGF vs without), the “increase of the percentage of myoblasts among mononuclear cells” value was found to be 35%. In assay [3] (setting [5]), the “% myoblast nuclei relative to non myotube nuclei” value was 32.2 ± 4.1%; the “% myoblast nuclei relative to total nuclei” value stood at 30.9 ± 3.8%; the “% of myoblast and myotube nucleic relative to total nuclei” value is listed as 35.1 ± 4.8%; the “% of myotube nuclei relative to total myotube and myoblast nuclei” value came out at 11.5 ± 6.6%. Besides, the “% of non-myoblast nuclei relative to non myotube nuclei” value in assay [3] (setting [5]) is 67.8 ± 4.1%.

With concanavalin A, in the assay with myoblasts, the “increase of migration of transplanted cells vs untreated myoblasts” value is 3 fold.

Regarding `CCCCCCCCCCCCCC(=O)O[C@@H]1[C@@H](C)[C@@]2(O)[C@@H](C=C(CO)C[C@]3(O)C(=O)C(C)=C[C@@H]23)[C@@H]2C(C)(C)[C@]12OC(C)=O` [TPA, phorbol ester], in assay [4], the “area of generated fibers vs non-treated preparation” value is reported as “four fold greater” and the “fibers generated vs non-treated preparation” value was “four times more fibers”.
